Measured values published in patent US12649907B2, “Alternate detergents for viral inactivation” (AMGEN INC., priority 2019, dated 2026).
Several values for one entry are separate records, joined by “and”; a condition that tells them apart may be missing. Equal entries are not always repeated.

Assays:
[1] = Turbidity of detergent spiked HCCF; type: physicochemical; conditions: HCCF spiked at five times CMC, room temperature 5 days and 2-8° C. 7 days
Description: Determination of turbidity was used to measure the stability of detergent spiked samples. Increased turbidity of the sample would reflect a precipitation of the protein molecule. 100 mL of harvested cell culture fluid (HCCF) collected from cultures of each molecule were subjected to four conditions: HCCF containing no detergent (control), APO128, APO129 and Triton X-100. The detergents were spiked at five times the detergent's critical micelle concentration (CMC) values, Triton-X: […] Two sample sets were generated for each molecule; one set was kept at room temperature for 5 days. The second set was kept at 2-8° C. for 7 days. The turbidity of each sample was measured using a turbidimeter (Hach Turbidime[…] 46500-00, Loveland, CO) on days 0, 1, 2, 5, and 7.

[2] = test system: xMuLV; assay: Temperature-dependent study, TCID50 LRV in host cell culture fluid matrices; type: cell-based, xenotropic murine leukemia virus; conditions: for Viral inactivation in the presence of therapeutic modalities: between 30 seconds and 30 minutes, temperatures as low as 5° C. and 15° C.; for Inactivation at 30 minutes at both 5° C. and 15° C.: mAb, BiTE ®, fusion protein matrices
[3] = test system: xMuLV; assay: Concentration study, lowest concentration to inactivate virus; type: cell-based, xenotropic murine leukemia virus; conditions: 15° C., 30-minute incubation
[4] = test system: MMV; assay: as above; type: cell-based, mouse minute virus
[5] = test system: xMuLV; type: cell-based, xenotropic murine leukemia virus; conditions: initial screen, 10× CMC or 10% w/v, 30 minutes, 15° C., 5% virus spike, PG4 cells
[6] = as indicated by the Hampton Kit; cited from earlier work
[7] = test system: PRV; type: cell-based, pseudorabies herpes virus
[8] = test system: xMuLV; assay: Kinetic study of detergents, TCID50 LRV in host cell culture fluid matrices; type: cell-based, xenotropic murine leukemia virus

Row | Molecule | Precipitation of protein modalities (turbidity) [1] | Cytopathic effects (CPE) at 2.5×CMC [3] | Cytopathic effects (CPE) at 2.5×CMC [4] | LRV BiTE ® ([2]; 5° C., 30 minutes, 5× CMC) | LRV fusion protein ([2]; 5° C., 30 minutes, 5× CMC) | LRV mAb ([2]; 5° C., 30 minutes, 5× CMC) | LRV BiTE ® ([2]; 15° C., 30 minutes, 5× CMC) | LRV fusion protein ([2]; 15° C., 30 minutes, 5× CMC) | LRV mAb ([2]; 15° C., 30 minutes, 5× CMC) | CMC [6] | Cytopathic effects (CPE) at 2.5×CMC [7] | LRV 30 s ([8]; BiTE ® #1, 15° C.) | LRV 10 min ([8]; BiTE ® #1, 15° C.) | LRV 30 min ([8]; BiTE ® #1, 15° C.) | LRV 30 s ([8]; fusion protein #1, 15° C.) | LRV 10 min ([8]; fusion protein #1, 15° C.) | LRV 30 min ([8]; fusion protein #1, 15° C.) | LRV 30 s ([8]; mAb #1, 15° C.) | LRV 10 min ([8]; mAb #1, 15° C.) | LRV 30 min ([8]; mAb #1, 15° C.) | other results
1 | polyoxyethylene octyl phenol ether [Triton X-100, reference compound] | none of the detergents tested caused precipitation | – | – | – | – | – | – | – | – | – | – | – | – | – | – | – | – | – | – | – | LRV fusion protein ([2]; Triton X-100 control, 7° C., 800-sample large volume plate (1 LRV increase), Run 1 and Run 2): 5.03 ± 0.58 and 5.04 ± 0.57
2 | CCCCCCCCCCCCOCCOCCOCCOCCOCCOCCOCCOCCO [Anapoe C12E8, 3,6,9,12,15,18,21,24-oxtaoxahexatriacontan-1-ol] | none of the detergents tested caused precipitation | showed cytopathic effects (CPE) | showed cytopathic effects (CPE) | ≥4.03 ± 0.18 | ≥4.23 ± 0.33 | ≥4.41 ± 0.37 | ≥4.32 ± 0.35 | ≥4.99 ± 0.42 | ≥3.28 ± 0.34 | 0.11 mM | showed cytopathic effects (CPE) | ≥3.32 ± 0.35 | ≥3.32 ± 0.35 | ≥3.32 ± 0.35 | ≥3.99 ± 0.42 | ≥3.99 ± 0.42 | ≥3.99 ± 0.42 | ≥3.28 ± 0.34 | ≥3.28 ± 0.34 | ≥3.28 ± 0.34 | Viral inactivation in the presence of therapeutic modalities [2]: complete viral inactivation; Inactivation at 30 minutes at both 5° C. and 15° C. [2]: complete inactivation; Viral inactivation towards xMuLV (CPE) [5]: robustly inactivate the virus
3 | Polyoxyethylene(9)dodecyl ether [Anapoe C12E9] | none of the detergents tested caused precipitation | showed cytopathic effects (CPE) | showed cytopathic effects (CPE) | ≥3.84 ± 0.33 | ≥4.19 ± 0.25 | ≥3.91 ± 0.30 | ≥3.91 ± 0.43 | ≥4.32 ± 0.36 | ≥4.23 ± 0.38 | 0.05 mM | showed cytopathic effects (CPE) | 2.61 ± 0.68 | ≥2.91 ± 0.43 | ≥2.91 ± 0.43 | 2.56 ± 0.60 | ≥3.32 ± 0.36 | ≥3.32 ± 0.36 | ≥3.23 ± 0.00 | ≥3.23 ± 0.00 | ≥3.23 ± 0.00 | Viral inactivation in the presence of therapeutic modalities [2]: complete viral inactivation; Inactivation at 30 minutes at both 5° C. and 15° C. [2]: complete inactivation; Viral inactivation towards xMuLV (CPE) [5]: robustly inactivate the virus; Time to complete inactivation of xMuLV ([8]; BiTE® #1): ≤ 10 min; Time to complete clearance of xMuLV ([8]; all three therapeutic modalities): ≤ 10 min; Time to complete inactivation of xMuLV ([8]; fusion protein #1): ≤ 10 min; Time to complete inactivation of xMuLV ([8]; mAb #1): 0.5 min
4 | CCCCCCCCCCOP(=O)([O-])OCC[N+](C)(C)C [Fos-Choline ®-10, n-decylphosphocholine] | – | showed cytopathic effects (CPE) | showed cytopathic effects (CPE) | 2.09 ± 0.31 | 1.76 ± 0.41 | 2.54 ± 0.34 | 3.92 ± 0.67 | 3.51 ± 0.43 | 3.97 ± 0.90 | 11 mM | showed cytopathic effects (CPE) | 0.69 ± 0.44 | 1.57 ± 0.47 | 3.92 ± 0.67 | 0.82 ± 0.57 | 1.82 ± 0.51 | 3.51 ± 0.43 | 0.69 ± 0.31 | 1.61 ± 0.56 | 3.97 ± 0.90 | Inactivation towards xMuLV at any temperature tested ([2]; in product matrices): did not yield significant inactivation; average LRV ([2]; process temperature of 15° C., average over modalities): 3.8; Clearance of xMuLV within 30 minutes ([8]; 15° C.): did not lead to robust clearance
